Columns and labels:
[1] = system: brain monoamine (NA, DA and 5-HT); assay: Measurement of brain monoamine level (microdialysis, prefrontal region) during 12-hour mirtazapine administration; format: in vivo, rat
Experimental: Rats (male, body weight: 200 to 300 g, n=5) were anesthetized by inhalation of isoflurane, and then a cannula for long-term continuous administration was buried under the skin of each rat and a guide (microdialysis) was in the prefrontal region thereof. In 5 to 7 days after the guide insertion, a probe for measurement of monoamine in the brain was inserted into the prefrontal region, and via the microsyringe pump connected to the probe, a perfusate was perfused at a flow rate of 0.5 μL/min. For mirtazapine administration, a mirtazapine 3 mg/mL/kg solution was administered in a predetermined dose via the microsyringe pump, taking 12 hours. A Ringer' s solution was used as the perfusate, which was collected at intervals of 1 hour using a fraction collector.
(§1) Monoamine was measured from the perfusate collected by the fraction collector, and mirtazapine was measured from the plasma sample through HPLC.

[2] = Measurement of plasma mirtazapine level during 12-hour mirtazapine administration; format: in vivo; conditions: rat, subcutaneous, 6 hours after start of administration, 3 mg/mL/kg over 12 hours, read-out: mean concentration of mirtazapine in rat plasma (mean±SEM)
Experimental: Next, at the same dose mode and through the same administration route as above, mirtazapine (3 mg/mL/kg) was administered in a predetermined dose, taking 12 hours, and in 6 hours after the start, the blood was collected. The time at which the administration was started was referred to as the test start time. Heparin was added to the collected blood and then centrifuged, and the thus-separated plasma was the sample.
as §1

[3] = 18 hours after start of administration, mirtazapine 3 mg/mL/kg solution over 12 hours

CN1CCN2c3ncccc3Cc3ccccc3C2C1 (stereo not shown) [mirtazapine]
NA and DA in rat prefrontal region ([1]; 1 hour after start of mirtazapine administration): increase in NA and DA was admitted
NA level in rat prefrontal region (mean±SEM) ([1]; 7 hours after start of administration, mirtazapine 3 mg/mL/kg solution over 12 hours, n=5): 184.7±17.3%
DA level in rat prefrontal region ([1]; 8 hours after start of administration, mirtazapine 3 mg/mL/kg solution over 12 hours, n=5): 222.1±38.5%
DA level in rat prefrontal region [1, 3]: 159.2±15.6%
NA level in rat prefrontal region [1, 3]: 124.2±10.7
influence on 5-HT in rat prefrontal region ([1]; mirtazapine 3 mg/mL/kg solution over 12 hours): no influence on 5-HT was admitted
concentration at 6 h [2]: 27.5 ± 3.5 ng/mL

From patent US20130253449A1, “NORADRENERGIC AND SPECIFIC SEROTONERGIC ANTIDEPRESSANT-CONTAINING TRANSDERMAL PATCH” (priority 2010, published 2013)
